Test results from ChEMBL document CHEMBL2331399, “Purification and characterization of carbonic anhydrase from sheep kidney and effects of sulfonamides on enzyme activity” (Bioorg Med Chem, 2013).

Test: Inhibition of sheep kidney esterase activity of carbonic anhydrase using 4-nitrophenylacetate as substrate after 3 mins by spectrophotometric analysis
Parameters: species or system Ovis aries

Row | SMILES | Ki
1 | NS(=O)(=O)c1ccccc1Br | 5.87 µM
2 | Cc1ccc(S(N)(=O)=O)cc1 [P-TOLUENESULFONAMIDE] | 1.35 µM

Next, values leading:

Row | Ki | SMILES
3 | 2.59 µM | NS(=O)(=O)c1ccc2ccccc2c1
4 | 8.66 µM | NS(=O)(=O)c1ccccc1 [BENZENESULFONAMIDE]
5 | 69.3 µM | Nc1ccc(S(N)(=O)=O)cc1 [SULFANILAMIDE]
